Data taken from patent US4740601A, “Imidazole derivatives having antimicrobial activities” (SS Pharmaceutical Co., Ltd., priority 1985, dated 1988).
In brackets after ≈: the same amount, converted by molar mass. Read-outs that look alike come from different tables or passages of the source.

Legend:
Type in all cases: cell-based
[1] = system: Bacillus subtilis ATCC 6633; test: antimicrobial activity, MIC
[2] = system: Staphylococcus aureus FDA 209P; test: antimicrobial activity, MIC
[3] = system: Staphylococcus aureus Terajima; test: antimicrobial activity, MIC
[4] = system: Staphylococcus aureus Smith; test: antimicrobial activity, MIC
[5] = system: Staphylococcus epidermidis ATCC 12228; test: antimicrobial activity, MIC
Sarcina lutea ATCC 9341 = test: antimicrobial activity, MIC
[6] = system: Streptococcus faecalis IFO 12964; test: antimicrobial activity, MIC
[7] = system: Micrococcus lysodeixticus IFO 3333; test: antimicrobial activity, MIC
[8] = system: Candida albicans NHL 4019; test: antimicrobial activity, MIC
Candida albicans Yu-1200 = test: antimicrobial activity, MIC
[9] = system: Saccharomyces cerevisiae ATCC 9763; test: antimicrobial activity, MIC
Saccharomyces ruxii 6507 = test: antimicrobial activity, MIC; details: Saccharomyces ruxii 6507
[10] = system: Aspergillus niger ATCC 9642; test: antimicrobial activity, MIC
[11] = system: Penicillium chrysogenum ATCC 6010; test: antimicrobial activity, MIC
[12] = system: Trichophyton mentagrophytes QM 248; test: antimicrobial activity, MIC
[13] = system: Trichophyton mentagrophytes IFO 5812; test: antimicrobial activity, MIC
[14] = system: Trichophyton tonsurans IFO 5928; test: antimicrobial activity, MIC
[15] = system: Trichophyton rubrum NHL J; test: antimicrobial activity, MIC; details: Trichophyton rubrum NHL J
[16] = system: Microsporum gypseum IFO 8231; test: antimicrobial activity, MIC
[17] = system: Microsporum audounii IFO 6074; test: antimicrobial activity, MIC
[18] = system: Microsporum cookei IFO 8303; test: antimicrobial activity, MIC
[19] = system: Epidermophyton floccosum IFO 9045; test: antimicrobial activity, MIC
[20] = system: Aspergillus oryzae IMF 4014; test: antimicrobial activity, MIC
[21] = system: Cladosporium fulvum IAM 5006; test: antimicrobial activity, MIC
[22] = system: Fusarium moniliforme IAM 5062; test: antimicrobial activity, MIC
[23] = system: Helminthosporium sesamum IAM 5012; test: antimicrobial activity, MIC
[24] = system: Pyricularia oryzae IAM 5016; test: microbe, parasite or virus in culture
[25] = system: Debaryomyces kloeckeri IFO 0015; test: antimicrobial activity, MIC
[26] = system: Gibberella fujikuroi IAM 8046; test: antimicrobial activity, MIC
[27] = Staphylococcus aureus, FDA209P, read-out: MIC
[28] = Staphylococcus aureus, read-out: MIC
[29] = Staphylococcus epidermidis ATCC 12228
[30] = Enterococcus faecalis, IFO12964, Streptococcus faecalis IFO 12964, read-out: MIC
[31] = Micrococcus lysodeixticus IFO 3333
[32] = Candida albicans, NHL4019, Candida albicans NHL 4019, read-out: MIC
[33] = Saccharomyces cerevisiae, ATCC9763, Saccharomyces cerevisiae ATCC 9763, read-out: MIC
[34] = Penicillium chrysogenum ATCC 6010
[35] = Trichophyton mentagrophytes, QM248, Trichophyton mentagrophytes QM 248, read-out: MIC
[36] = Trichophyton mentagrophytes, IFO5812, Trichophyton mentagrophytes IFO 5812, read-out: MIC
[37] = Trichophyton tonsurans, IFO5928, Trichophyton tonsurans IFO 5928, read-out: MIC
[38] = Trichophyton rubrum, read-out: MIC
[39] = Nannizzia gypsea, IFO8231, Microsporum gypseum IFO 8231, read-out: MIC
[40] = Microsporum, IFO6074, Microsporum audounii IFO 6074, read-out: MIC
[41] = Epidermophyton floccosum, IFO9045, Epidermophyton floccosum IFO 9045, read-out: MIC
[42] = Fulvia fulva, IAM5006, Cladosporium fulvum IAM 5006, read-out: MIC
[43] = Helminthosporium, IAM5012, Helminthosporium sesamum IAM 5012, read-out: MIC
[44] = Pyricularia oryzae, IAM5016, Pyricularia oryzae IAM 5016
[45] = Bacillus subtilis, ATCC6633, Bacillus subtilis ATCC 6633, read-out: MIC
[46] = Staphylococcus epidermidis, ATCC12228, Staphylococcus epidermidis ATCC 12228, read-out: MIC
[47] = Micrococcus luteus, ATCC9341, Sarcina lutea ATCC 9341, read-out: MIC
[48] = Micrococcus, IFO3333, Micrococcus lysodeixticus IFO 3333, read-out: MIC
[49] = Aspergillus niger, ATCC9642, Aspergillus niger ATCC 9642, read-out: MIC
[50] = Penicillium chrysogenum, ATCC6010, Penicillium chrysogenum ATCC 6010, read-out: MIC
[51] = Paraphyton cookei, IFO8303, Microsporum cookei IFO 8303, read-out: MIC
[52] = Aspergillus oryzae, IMF4014, Aspergillus oryzae IMF 4014, read-out: MIC
[53] = Fusarium verticillioides, IAM5062, Fusarium moniliforme IAM 5062, read-out: MIC
[54] = Fusarium fujikuroi, IAM8046, Gibberella fujikuroi IAM 8046, read-out: MIC

CCCOc1ccccc1C(=CSCc1ccccc1)n1ccnc1 (single isomer, unassigned) [Compound 3, 1-(2-n-propyloxyphenyl)-1-imidazolyl-2-benzylthioethylene]
MIC ([1]; Bacillus subtilis ATCC 6633): 1.56 µg/mL (≈ 4.45 µM)
MIC [2, 27]: 12.5 µg/mL (≈ 35.7 µM)
MIC [3, 28]: 6.25 µg/mL (≈ 17.8 µM)
MIC [4, 28]: 6.25 µg/mL (≈ 17.8 µM)
MIC [5, 29]: 3.12 µg/mL (≈ 8.9 µM)
MIC (Sarcina lutea ATCC 9341; Sarcina lutea ATCC 9341): 1.56 µg/mL (≈ 4.45 µM)
MIC [6, 30]: 6.25 µg/mL (≈ 17.8 µM)
MIC [7, 31]: 0.78 µg/mL (≈ 2.23 µM)
MIC [8, 32]: 50 µg/mL (≈ 143 µM)
MIC (Candida albicans Yu-1200; YU1200, read-out: MIC): > 100 µg/mL
MIC [9, 33]: < 0.2 µg/mL
MIC (Saccharomyces ruxii 6507; read-out: MIC): < 0.2 µg/mL
MIC ([10]; Aspergillus niger ATCC 9642): 0.39 µg/mL (≈ 1.11 µM)
MIC [11, 34]: 50 µg/mL (≈ 143 µM)
MIC [12, 35]: < 0.2 µg/mL
MIC [13, 36]: < 0.2 µg/mL
MIC [14, 37]: < 0.2 µg/mL
MIC [15, 38]: < 0.2 µg/mL
MIC [16, 39]: < 0.2 µg/mL
MIC [17, 40]: < 0.2 µg/mL
MIC ([18]; Microsporum cookei IFO 8303): 6.25 µg/mL (≈ 17.8 µM)
MIC [19, 41]: 3.12 µg/mL (≈ 8.9 µM)
MIC ([20]; Aspergillus oryzae IMF 4014): 6.25 µg/mL (≈ 17.8 µM)
MIC [21, 42]: 12.5 µg/mL (≈ 35.7 µM)
MIC ([22]; Fusarium moniliforme IAM 5062): > 100 µg/mL
MIC [23, 43]: < 0.2 µg/mL
MIC [24, 44]: < 0.2 µg/mL
MIC ([25]; IFO0015, read-out: MIC): 6.25 µg/mL (≈ 17.8 µM)
MIC ([26]; Gibberella fujikuroi IAM 8046): 25 µg/mL (≈ 71.3 µM)

CCCOc1ccccc1C(=CSCc1ccccc1)n1ccnc1 (single isomer, unassigned) [Compound 4]
MIC ([1]; Bacillus subtilis ATCC 6633): 6.25 µg/mL (≈ 17.8 µM)
MIC [2]: 25 µg/mL (≈ 71.3 µM)
MIC [3]: 12.5 µg/mL (≈ 35.7 µM)
MIC [4]: 12.5 µg/mL (≈ 35.7 µM)
MIC [5, 29]: 12.5 µg/mL (≈ 35.7 µM)
MIC (Sarcina lutea ATCC 9341; Sarcina lutea ATCC 9341): 6.25 µg/mL (≈ 17.8 µM)
MIC ([6]; Streptococcus faecalis IFO 12964): 12.5 µg/mL (≈ 35.7 µM)
MIC [7, 31]: 3.12 µg/mL (≈ 8.9 µM)
MIC ([8]; Candida albicans NHL 4019): 25 µg/mL (≈ 71.3 µM)
MIC (Candida albicans Yu-1200): > 100 µg/mL
MIC ([9]; Saccharomyces cerevisiae ATCC 9763): < 0.2 µg/mL
MIC (Saccharomyces ruxii 6507): < 0.2 µg/mL
MIC ([10]; Aspergillus niger ATCC 9642): 1.56 µg/mL (≈ 4.45 µM)
MIC [11, 34]: 3.12 µg/mL (≈ 8.9 µM)
MIC ([12]; Trichophyton mentagrophytes QM 248): < 0.2 µg/mL
MIC ([13]; Trichophyton mentagrophytes IFO 5812): < 0.2 µg/mL
MIC ([14]; Trichophyton tonsurans IFO 5928): < 0.2 µg/mL
MIC [15]: < 0.2 µg/mL
MIC ([16]; Microsporum gypseum IFO 8231): < 0.2 µg/mL
MIC ([17]; Microsporum audounii IFO 6074): < 0.2 µg/mL
MIC ([18]; Microsporum cookei IFO 8303): 1.56 µg/mL (≈ 4.45 µM)
MIC ([19]; Epidermophyton floccosum IFO 9045): 1.78 µg/mL (≈ 5.08 µM)
MIC ([20]; Aspergillus oryzae IMF 4014): 1.56 µg/mL (≈ 4.45 µM)
MIC ([21]; Cladosporium fulvum IAM 5006): 25 µg/mL (≈ 71.3 µM)
MIC ([22]; Fusarium moniliforme IAM 5062): 0.78 µg/mL (≈ 2.23 µM)
MIC ([23]; Helminthosporium sesamum IAM 5012): < 0.2 µg/mL
MIC ([24]; Pyricularia oryzae IAM 5016): < 0.2 µg/mL
MIC [25]: 6.25 µg/mL (≈ 17.8 µM)
MIC ([26]; Gibberella fujikuroi IAM 8046): 0.78 µg/mL (≈ 2.23 µM)

CCCCOc1ccccc1C(=CSCc1ccccc1)n1ccnc1 (single isomer, unassigned) [Compound 8]
MIC [1, 45]: 3.12 µg/mL (≈ 8.56 µM)
MIC [2, 27]: 25 µg/mL (≈ 68.6 µM)
MIC [3, 28]: 6.25 µg/mL (≈ 17.1 µM)
MIC [4, 28]: 6.25 µg/mL (≈ 17.1 µM)
MIC [5, 46]: 6.25 µg/mL (≈ 17.1 µM)
MIC (Sarcina lutea ATCC 9341; [47]): 3.12 µg/mL (≈ 8.56 µM)
MIC [6, 30]: > 100 µg/mL
MIC [7, 48]: 1.56 µg/mL (≈ 4.28 µM)
MIC [8, 32]: > 100 µg/mL
MIC (Candida albicans Yu-1200; YU1200, read-out: MIC): > 100 µg/mL
MIC [9, 33]: < 0.2 µg/mL
MIC (Saccharomyces ruxii 6507; read-out: MIC): < 0.2 µg/mL
MIC [10, 49]: 12.5 µg/mL (≈ 34.3 µM)
MIC [11, 50]: 12.5 µg/mL (≈ 34.3 µM)
MIC [12, 35]: 0.39 µg/mL (≈ 1.07 µM)
MIC [13, 36]: 0.39 µg/mL (≈ 1.07 µM)
MIC [14, 37]: < 0.2 µg/mL
MIC [15, 38]: < 0.2 µg/mL
MIC [16, 39]: 0.39 µg/mL (≈ 1.07 µM)
MIC [17, 40]: < 0.2 µg/mL
MIC [18, 51]: 12.5 µg/mL (≈ 34.3 µM)
MIC [19, 41]: 6.25 µg/mL (≈ 17.1 µM)
MIC [20, 52]: 12.5 µg/mL (≈ 34.3 µM)
MIC [21, 42]: > 100 µg/mL
MIC [22, 53]: 12.5 µg/mL (≈ 34.3 µM)
MIC [23, 43]: 0.78 µg/mL (≈ 2.14 µM)
MIC [24, 44]: < 0.2 µg/mL
MIC ([25]; IFO0015, read-out: MIC): 6.25 µg/mL (≈ 17.1 µM)
MIC [26, 54]: 6.25 µg/mL (≈ 17.1 µM)

CCCCCCOc1ccccc1C(=CSC)n1ccnc1 (single isomer, unassigned) [Compound 27]
MIC [1, 45]: 6.25 µg/mL (≈ 19.7 µM)
MIC [2, 27]: 12.5 µg/mL (≈ 39.5 µM)
MIC [3, 28]: 6.25 µg/mL (≈ 19.7 µM)
MIC [4, 28]: 12.5 µg/mL (≈ 39.5 µM)
MIC [5, 46]: 6.25 µg/mL (≈ 19.7 µM)
MIC (Sarcina lutea ATCC 9341; [47]): 3.12 µg/mL (≈ 9.86 µM)
MIC [6, 30]: 12.5 µg/mL (≈ 39.5 µM)
MIC [7, 48]: 1.56 µg/mL (≈ 4.93 µM)
MIC [8, 32]: 25 µg/mL (≈ 79 µM)
MIC (Candida albicans Yu-1200; YU1200, read-out: MIC): 50 µg/mL (≈ 158 µM)
MIC [9, 33]: < 0.2 µg/mL
MIC (Saccharomyces ruxii 6507; read-out: MIC): < 0.2 µg/mL
MIC [10, 49]: 0.39 µg/mL (≈ 1.23 µM)
MIC [11, 50]: 1.56 µg/mL (≈ 4.93 µM)
MIC [12, 35]: < 0.2 µg/mL
MIC [13, 36]: < 0.2 µg/mL
MIC [14, 37]: < 0.2 µg/mL
MIC [15, 38]: < 0.2 µg/mL
MIC [16, 39]: < 0.2 µg/mL
MIC [17, 40]: < 0.2 µg/mL
MIC [18, 51]: < 0.2 µg/mL
MIC [19, 41]: < 0.2 µg/mL
MIC [20, 52]: < 0.2 µg/mL
MIC [21, 42]: 3.12 µg/mL (≈ 9.86 µM)
MIC [22, 53]: < 0.2 µg/mL
MIC [23, 43]: < 0.2 µg/mL
MIC [24, 44]: < 0.2 µg/mL
MIC ([25]; IFO0015, read-out: MIC): 1.56 µg/mL (≈ 4.93 µM)
MIC [26, 54]: < 0.2 µg/mL
